This assay can be described thus: Compound (1.7 x 10E-3 M) was evaluated for the formation of all-trans retinal schiff base with Lysine residue which exhibits significant Opsin shift of naturally occurring visual pigments; Active. Type of assay: functional.

Active and inactive are the calls of the source. The rule behind the calls is not given here.

With `CC1=C(/C=C/C(C)=C/C=C/C(C)=C/C=O)C(C)(C)CCC1`, the Opsin shift activity result is “Active”.

Source of the values: ChEMBL document CHEMBL1131847, “Opsin shift in an aldolase antibody” (Bioorg Med Chem Lett, 1999).
